In ChEMBL document CHEMBL3352030, “Evaluation of the cyclopentane-1,2-dione as a potential bio-isostere of the carboxylic acid functional group” (Bioorg Med Chem Lett, 2014):

Tests used:
Thromboxane A2 receptor = target: T1, Thromboxane A2 receptor (Homo sapiens, UniProt P21731); assay: Inhibition of human TP receptor expressed in QBI-HEK 293A cells assessed as IP3 metabolite level after 1 hr by HTRF assay; type: functional, cell-based
T1 sequence (P21731 whole entry): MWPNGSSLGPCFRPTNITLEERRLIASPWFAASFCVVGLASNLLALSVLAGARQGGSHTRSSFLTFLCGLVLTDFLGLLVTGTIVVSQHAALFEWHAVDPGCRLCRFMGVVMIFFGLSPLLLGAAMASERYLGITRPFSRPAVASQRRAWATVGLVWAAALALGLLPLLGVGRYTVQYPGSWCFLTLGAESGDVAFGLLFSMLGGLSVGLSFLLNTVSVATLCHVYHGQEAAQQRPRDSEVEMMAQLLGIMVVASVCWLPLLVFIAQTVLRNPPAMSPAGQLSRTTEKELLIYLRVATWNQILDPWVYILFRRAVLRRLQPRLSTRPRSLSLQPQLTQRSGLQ

Plasma = assay: Stability in CD-1 mouse plasma at 1 uM after 1 hr by LC/MS/MS analysis; type: ADME, cell-free
[1] = Dissociation constant, pKa of the compound by potentiometric titration

Row | IC50 (Thromboxane A2 receptor) [nM] | Stability (Plasma) | pKa [1] | Compound
1 | 2.6 |  |  | O=C(O)CCc1cccc2c1CCC(NS(=O)(=O)c1ccc(Cl)cc1)C2 (stereo not given)
2 | 54 | Stable |  | O=C1CCC(Cc2cccc(CCNS(=O)(=O)c3ccc(Cl)cc3)c2)=C1O
3 | 1140 |  |  | O=C1CC(c2cccc(CCNS(=O)(=O)c3ccc(Cl)cc3)c2)C=C1O (stereo not given)
4 |  |  | 8.6 | O=C1CCC(Cc2ccc(Br)cc2)=C1O
